The target of assay [1] is T1, GST fusion human ERK2 protein (Homo sapiens, UniProt P28482).
T1 construct: purchased Carna Biosciences, Inc; host or cells: E. coli expression system
Briefly: ERK2 enzyme assay (1). The following applies: read-out: ERK2 enzyme inhibitory activity (1). The class given is biochemical. Summed up: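 Enzyme (2.5 nmol/L, E. coli-expressed) preincubated with compound 15 min at room temperature in HEPES/MgCl2/DTT/Brij35 buffer, pH 7.5; reaction with 4.25 μmol/L FL-Peptide 8 and 43.1 μmol/L ATP for 120 min at 25 °C. Phosphorylated peptide fraction quantified by mobility-shift separation after EDTA stop; IC50 calculated.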

For a further assay, the target named is T2, human PI3Kα protein (Homo sapiens, UniProt P42336).
T2 construct: purchased Carna Biosciences, Inc; host or cells: baculovirus expression system
T2 sequence (P42336 whole entry): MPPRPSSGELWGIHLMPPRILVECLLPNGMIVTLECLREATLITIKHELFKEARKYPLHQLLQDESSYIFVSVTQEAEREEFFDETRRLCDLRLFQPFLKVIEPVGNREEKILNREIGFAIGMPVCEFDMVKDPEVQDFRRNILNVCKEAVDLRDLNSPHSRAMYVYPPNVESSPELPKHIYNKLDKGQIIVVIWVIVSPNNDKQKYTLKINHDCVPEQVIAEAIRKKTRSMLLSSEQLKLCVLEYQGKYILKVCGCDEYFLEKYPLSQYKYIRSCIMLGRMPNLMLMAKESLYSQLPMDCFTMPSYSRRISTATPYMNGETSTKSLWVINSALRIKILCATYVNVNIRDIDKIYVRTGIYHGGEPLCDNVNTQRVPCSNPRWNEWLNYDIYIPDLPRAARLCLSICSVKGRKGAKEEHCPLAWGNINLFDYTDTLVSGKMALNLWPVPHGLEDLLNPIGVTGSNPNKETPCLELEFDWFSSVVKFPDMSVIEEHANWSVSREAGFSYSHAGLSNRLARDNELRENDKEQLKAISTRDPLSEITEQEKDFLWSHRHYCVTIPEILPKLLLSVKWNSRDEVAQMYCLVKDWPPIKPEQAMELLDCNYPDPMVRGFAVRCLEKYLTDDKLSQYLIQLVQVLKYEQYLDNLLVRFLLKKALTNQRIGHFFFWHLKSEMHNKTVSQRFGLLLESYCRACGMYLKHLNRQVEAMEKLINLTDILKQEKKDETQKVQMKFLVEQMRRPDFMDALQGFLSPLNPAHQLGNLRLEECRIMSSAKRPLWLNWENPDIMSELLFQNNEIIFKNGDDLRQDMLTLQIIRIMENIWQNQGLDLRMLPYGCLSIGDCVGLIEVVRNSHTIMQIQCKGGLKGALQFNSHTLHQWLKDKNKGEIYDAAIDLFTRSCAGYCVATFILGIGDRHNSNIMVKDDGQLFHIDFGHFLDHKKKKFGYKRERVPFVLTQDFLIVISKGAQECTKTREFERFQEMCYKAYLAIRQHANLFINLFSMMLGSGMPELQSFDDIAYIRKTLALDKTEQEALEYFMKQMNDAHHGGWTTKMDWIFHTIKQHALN
T2 sequence (P27986 whole entry partner): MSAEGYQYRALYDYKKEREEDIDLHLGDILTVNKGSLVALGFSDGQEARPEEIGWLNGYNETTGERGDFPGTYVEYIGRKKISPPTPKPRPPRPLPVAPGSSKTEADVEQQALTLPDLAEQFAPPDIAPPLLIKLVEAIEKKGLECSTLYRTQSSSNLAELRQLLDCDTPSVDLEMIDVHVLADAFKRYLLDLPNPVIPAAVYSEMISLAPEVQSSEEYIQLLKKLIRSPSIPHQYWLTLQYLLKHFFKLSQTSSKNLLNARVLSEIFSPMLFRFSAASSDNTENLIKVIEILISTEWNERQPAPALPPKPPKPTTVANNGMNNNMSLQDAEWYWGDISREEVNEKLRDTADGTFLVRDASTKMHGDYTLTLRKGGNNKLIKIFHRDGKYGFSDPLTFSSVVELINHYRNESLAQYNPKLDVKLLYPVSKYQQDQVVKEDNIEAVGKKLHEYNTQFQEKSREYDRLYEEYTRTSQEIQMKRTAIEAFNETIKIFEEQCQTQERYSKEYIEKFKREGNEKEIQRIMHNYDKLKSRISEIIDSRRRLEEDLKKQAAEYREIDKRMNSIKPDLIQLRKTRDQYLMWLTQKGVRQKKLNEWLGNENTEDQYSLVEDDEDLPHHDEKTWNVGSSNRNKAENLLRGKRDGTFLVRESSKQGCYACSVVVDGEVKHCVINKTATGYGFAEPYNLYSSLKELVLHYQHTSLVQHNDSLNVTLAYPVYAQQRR
Briefly: PI3Kα enzyme assay (ADP-Glo). As to conditions: read-out: PI3Kα enzyme inhibitory activity. The class given is biochemical. The method in brief: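 Biotinylated human PI3Kα (baculovirus-expressed, 4.5 nmol/L) pre-incubated 15 min with compound in Tris-HCl pH 7.5, MgCl2, BSA; reaction 60 min at 25° C with 50 μmol/L PIP2 and 100 μmol/L ATP final. ADP quantified by ADP-Glo luminescence; IC50 calculated.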

Setting [2] is: 2.5 nmol/L ERK2, ATP 43.1 μmol/L.
[3] abbreviates: 4.5 nmol/L PI3Kα, PIP2 50 μmol/L, ATP 100 μmol/L.

Where a name gives a salt, the structure may show the parent alone. Read-outs that look alike come from different tables or passages of the source.

T1 sequence (P28482 whole entry, the tested form may be a part): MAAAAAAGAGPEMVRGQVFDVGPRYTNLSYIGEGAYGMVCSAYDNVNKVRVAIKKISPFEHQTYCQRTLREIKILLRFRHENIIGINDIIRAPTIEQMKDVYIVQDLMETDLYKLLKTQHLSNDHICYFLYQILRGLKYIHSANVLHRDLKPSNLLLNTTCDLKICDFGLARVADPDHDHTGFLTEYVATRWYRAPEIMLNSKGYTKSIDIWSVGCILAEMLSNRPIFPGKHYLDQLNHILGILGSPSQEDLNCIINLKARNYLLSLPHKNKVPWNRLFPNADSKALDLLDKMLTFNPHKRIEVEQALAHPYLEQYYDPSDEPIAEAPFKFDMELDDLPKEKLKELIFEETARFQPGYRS

Consider `Cc1nn(CCCN2CCCC2)cc1-c1cnc2ccc(Nc3cc(C(C)C)cnn3)nc2c1` [Example 0156, N-(5-isopropylpyridazin-3-yl)-7-(3-methyl-1-(3-(pyrrolidin-1-yl)propyl)-1H-pyrazol-4-yl)-1,5-naphthyridine-2-amine], for which the IC50 (in assay [1] (setting [2]); at human PI3Kα protein (setting [3])) was < 1000 nM each time.
`Cn1cc(-c2cnc3ccc(Nc4nnc(Cc5ccccc5)s4)nc3c2)cn1` [Example 0165, 5-benzyl-N-(7-(1-methyl-1H-pyrazol-4-yl)-1,5-naphthyridin-2-yl)-1,3,4-thiadiazole-2-amine]: the IC50 in assay [1] (setting [2]) is < 1000 nM; on human PI3Kα protein (setting [3]), 10000 to 50000 nM.
For `CN(C)Cc1nnc(Nc2ccc3ncc(-c4cnn(C)c4)cc3n2)s1` [Example 0166, 5-((Dimethylamino)methyl)-N-(7-(1-methyl-1H-pyrazol-4-yl)-1,5-naphthyridin-2-yl)-1,3,4-thiadiazole-2-amine] the same measures were < 1000 nM and 1000 to 10000 nM.
For `Cn1cc(-c2cnc3ccc(Nc4nnc(CCc5ccccc5)s4)nc3c2)cn1` [Example 0171, N-(7-(1-methyl-1H-pyrazol-4-yl)-1,5-naphthyridin-2-yl)-5-phenethyl-1,3,4-thiadiazole-2-amine] the same measures were < 1000 nM and 10000 to 50000 nM.
On the same counts, the results for `c1n[nH]cc1Nc1cnc2ccc(Nc3nnc(C4CCCC4)s3)nc2c1` [Example 0175, N^2-(5-cyclopentyl-1,3,4-thiadiazol-2-yl)-N^7-(1H-pyrazol-4-yl)-1,5-naphthyridine-2,7-diamine] are < 1000 nM and < 1000 nM.
Take `Cn1cc(-c2cnc3ccc(Nc4nnc(S(=O)(=O)Nc5ccccc5)s4)nc3c2)cn1` [Example 0176, 5-((7-(1-methyl-1H-pyrazol-4-yl)-1,5-naphthyridin-2-yl)amino)-N-phenyl-1,3,4-thiadiazole-2-sulfonamide]: the IC50 (in assay [1] (setting [2]); on human PI3Kα protein (setting [3])) was < 1000 nM throughout.
With `Cn1cc(-c2cnc3ccc(Nc4nnc(NS(=O)(=O)c5ccccc5)s4)nc3c2)cn1` [Example 0177, N-(5-((7-(1-methyl-1H-pyrazol-4-yl)-1,5-naphthyridin-2-yl)amino)-1,3,4-thiadiazol-2-yl)benzene sulfonamide hydrochloride], the IC50 (in assay [1] (setting [2]); at human PI3Kα protein (setting [3])) was < 1000 nM in each case.
For `CCc1cnnc(Nc2ccc3ncc(-c4cnn(CCCN5CCOCC5)c4)cc3n2)c1` [Example 0178, N-(5-ethylpyridazin-3-yl)-7-(1-(3-morpholinopropyl)-1H-pyrazol-4-yl)-1,5-naphthyridine-2-amine], the IC50 (in assay [1] (setting [2]); on human PI3Kα protein (setting [3])) was < 1000 nM each time.
In the case of `CC(C)(C)OC(=O)N1CCN(CCn2cc(-c3cnc4ccc(Nc5nnc(S(=O)(=O)Nc6ccccc6)s5)nc4c3)cn2)CC1` [Example 0180, tert-Butyl 4-(2-(4-(6-((5-(N-phenylsulfamoyl)-1,3,4-thiadiazol-2-yl)amino)-1,5-naphthyridin-3-yl)-1H-pyrazol-1-yl)ethyl)piperazine-1-carboxylate], the IC50 in assay [1] (setting [2]) is < 1000 nM; on human PI3Kα protein (setting [3]), 1000 to 10000 nM.
On the same counts, the results for `O=S(=O)(Nc1ccccc1)c1nnc(Nc2ccc3ncc(-c4cnn(CCN5CCNCC5)c4)cc3n2)s1` [Example 0181, N-phenyl-5-((7-(1-(2-(piperazin-1-yl)ethyl)-1H-pyrazol-4-yl)-1,5-naphthyridin-2-yl)amino)-1,3,4-thiadiazole-2-sulfonamide hydrochloride] are < 1000 nM and < 1000 nM.
For `Cc1nnc(Nc2ccc3ncc(Nc4cn[nH]c4)cc3n2)s1` [Example 0182] the same measures were < 1000 nM and 1000 to 10000 nM.
`Cc1nnc(Nc2ccc3ncc(N(C)c4cn[nH]c4)cc3n2)s1` [Example 0183, N^7-methyl-N^2-(5-methyl-1,3,4-thiadiazol-2-yl)-N^7-(1H-pyrazol-4-yl)-1,5-naphthyridine-2,7-diamine]: the results for the IC50 (in assay [1] (setting [2]); on human PI3Kα protein (setting [3])) were < 1000 nM and 1000 to 10000 nM, respectively.
For the compound `Cc1nnc(Nc2ccc3ncc(Nc4cnn(C)c4)cc3n2)s1` [Example 0184], the IC50 in assay [1] (setting [2]) was < 1000 nM; on human PI3Kα protein (setting [3]), 1000 to 10000 nM.
Take `Cc1nnc(Nc2ccc3ncc(N(C)c4cnn(C)c4)cc3n2)s1` [Example 0185, N^7-methyl-N^2-(5-methyl-1,3,4-thiadiazol-2-yl)-N^7-(1-methyl-1H-pyrazol-4-yl)-1,5-naphthyridine-2,7-diamine]: the IC50 (in assay [1] (setting [2]); at human PI3Kα protein (setting [3])) was < 1000 nM throughout.
`c1nnc(Nc2ccc3ncc(Nc4cn[nH]c4)cc3n2)s1` [Example 0186, N^7-(1H-pyrazol-4-yl)-N^2-(1,3,4-thiadiazol-2-yl)-1,5-naphthyridine-2,7-diamine]: the IC50 (in assay [1] (setting [2]); on human PI3Kα protein (setting [3])) was < 1000 nM in each case.
With `Cn1cc(-c2cnc3ccc(Nc4nnc(NS(C)(=O)=O)s4)nc3c2)cn1` [Example 0187, N-(5-((7-(1-methyl-1H-pyrazol-4-yl)-1,5-naphthyridin-2-yl)amino)-1,3,4-thiadiazol-2-yl)methane sulfonamide], the IC50 (in assay [1] (setting [2]); on human PI3Kα protein (setting [3])) was < 1000 nM each time.
For `O=S(=O)(Nc1ccccc1)c1nnc(Nc2ccc3ncc(-c4cnn(CCN5CCOCC5)c4)cc3n2)s1` [Example 0188, 5-((7-(1-(2-morpholinoethyl)-1H-pyrazol-4-yl)-1,5-naphthyridin-2-yl)amino)-N-phenyl-1,3,4-thiadiazole-2-sulfonamide sodium salt], the IC50 (in assay [1] (setting [2]); at human PI3Kα protein (setting [3])) was < 1000 nM throughout.
As to `CN(c1nnc(Nc2ccc3ncc(-c4cnn(C)c4)cc3n2)s1)S(=O)(=O)c1ccccc1` [Example 0190], the values for the IC50 (in assay [1] (setting [2]); at human PI3Kα protein (setting [3])) were < 1000 nM and 1000 to 10000 nM, respectively.
For `Cn1cc(-c2cnc3ccc(Nc4nnc(S(N)(=O)=O)s4)nc3c2)cn1` [Example 0191, ((5-((7-(1-methyl-1H-pyrazol-4-yl)-1,5-naphthyridin-2-yl)amino)-1,3,4-thiadiazol-2-yl)sulfonyl)amide sodium salt] the same measures were < 1000 nM and < 1000 nM.
On the same counts, the results for `Cn1cc(-c2cnc3ccc(Nc4nnc(S(=O)(=O)NCc5ccccc5)s4)nc3c2)cn1` [Example 0192, N-benzyl-5-((7-(1-methyl-1H-pyrazol-4-yl)-1,5-naphthyridin-2-yl)amino)-1,3,4-thiadiazole-2-sulfonamide sodium salt] are < 1000 nM and < 1000 nM.
For `CN(C)S(=O)(=O)c1nnc(Nc2ccc3ncc(-c4cnn(C)c4)cc3n2)s1` [Example 0193, N,N-dimethyl-5-((7-(1-methyl-1H-pyrazol-4-yl)-1,5-naphthyridin-2-yl)amino)-1,3,4-thiadiazole-2-sulfonamide] the same measures were < 1000 nM and < 1000 nM.
For `Cn1cc(Nc2cnc3ccc(Nc4nnc(C5CCCC5)s4)nc3c2)cn1` [Example 0194], the IC50 in assay [1] (setting [2]) was < 1000 nM; on human PI3Kα protein (setting [3]), 1000 to 10000 nM.
For `CN(c1cnc2ccc(Nc3nnc(C4CCCC4)s3)nc2c1)c1cnn(C)c1` [Example 0195, N^2-(5-cyclopentyl-1,3,4-thiadiazol-2-yl)-N^7-methyl-N^7-(1-methyl-1H-pyrazol-4-yl)-1,5-naphthyridine-2,7-diamine] the same measures were < 1000 nM and 1000 to 10000 nM.
For `CN(c1cn[nH]c1)c1cnc2ccc(Nc3nnc(C4CCCC4)s3)nc2c1` [Example 0196, N^2-(5-cyclopentyl-1,3,4-thiadiazol-2-yl)-N^7-methyl-N^7-(1H-pyrazol-4-yl)-1,5-naphthyridine-2,7-diamine] the same measures were < 1000 nM and 1000 to 10000 nM.
For `CN1CCN(CCCn2cc(-c3cnc4ccc(Nc5nnc(C6CCCC6)s5)nc4c3)cn2)CC1` [Example 0197, 5-cyclopentyl-N-(7-(1-(3-(4-methylpiperazin-1-yl)propyl)-1H-pyrazol-4-yl)-1,5-naphthyridin-2-yl)-1,3,4-thiadiazole-2-amine] the same measures were < 1000 nM and < 1000 nM.
Consider `Cn1cc(-c2cnc3ccc(Nc4cncs4)nc3c2)cn1` [Example 0199, N-(7-(1-methyl-1H-pyrazol-4-yl)-1,5-naphthyridin-2-yl)thiazole-5-amine], for which the IC50 (in assay [1] (setting [2]); on human PI3Kα protein (setting [3])) was 1000 to 10000 nM throughout.
Take `c1ccc(Nc2cnc3ccc(Nc4nnc(C5CCCC5)s4)nc3c2)cc1` [Example 0200, N^2-(5-cyclopentyl-1,3,4-thiadiazol-2-yl)-N^7-phenyl-1,5-naphthyridine-2,7-diamine]: the IC50 (in assay [1] (setting [2]); on human PI3Kα protein (setting [3])) was 1000 to 10000 nM each time.
Turning to `c1n[nH]cc1-c1cnc2ccc(Nc3nnc(C4CCCC4)s3)nc2c1` [Example 0201], the IC50 in assay [1] (ERK2 enzyme assay (1)) was < 1000 nM; on human PI3Kα protein it was 1000 to 10000 nM.
For `COc1cc(-c2cnc3ccc(Nc4nnc(C5CCCC5)s4)nc3c2)ccc1O` [Example 0202] the same measures were < 1000 nM and 10000 to 50000 nM.
For `CCC1=C(OC)C(OC)=CC(Nc2cnc3ccc(Nc4nnc(C5CCCC5)s4)nc3c2)C1` (stereo not drawn) [Example 0205] the same measures were < 1000 nM and < 1000 nM.
In the case of `c1ccc(Nc2cnc3ccc(Nc4nnc(C5CCCC5)s4)nc3c2)nc1` [Example 0206], the figures for the IC50 (in assay [1] (ERK2 enzyme assay (1)); on human PI3Kα protein) were < 1000 nM and 10000 to 50000 nM, respectively.
For `c1cncc(Nc2cnc3ccc(Nc4nnc(C5CCCC5)s4)nc3c2)c1` [Example 0207] the same measures were < 1000 nM and < 1000 nM.
On the same counts, the results for `c1cc(Nc2cnc3ccc(Nc4nnc(C5CCCC5)s4)nc3c2)ccn1` [Example 0208] are < 1000 nM and < 1000 nM.

These data come from patent US9783536B2, “Nitrogen-containing heterocyclic compound or salt thereof” (FUJIFILM Corporation, priority 2013, dated 2017).
